target: T1, human CPT1A (Homo sapiens, UniProt P50416); test: Human CPT1A LC/MS assay; type: biochemical; conditions: human CPT1A LC/MS assay, dose response format
T1 construct: made in house; host or cells: Saccharomyces cerevisiae (pESC-trp) or cultured mammalian cells (pCDNA3.1); mitochondrial extract
T1 sequence (P50416 1-773): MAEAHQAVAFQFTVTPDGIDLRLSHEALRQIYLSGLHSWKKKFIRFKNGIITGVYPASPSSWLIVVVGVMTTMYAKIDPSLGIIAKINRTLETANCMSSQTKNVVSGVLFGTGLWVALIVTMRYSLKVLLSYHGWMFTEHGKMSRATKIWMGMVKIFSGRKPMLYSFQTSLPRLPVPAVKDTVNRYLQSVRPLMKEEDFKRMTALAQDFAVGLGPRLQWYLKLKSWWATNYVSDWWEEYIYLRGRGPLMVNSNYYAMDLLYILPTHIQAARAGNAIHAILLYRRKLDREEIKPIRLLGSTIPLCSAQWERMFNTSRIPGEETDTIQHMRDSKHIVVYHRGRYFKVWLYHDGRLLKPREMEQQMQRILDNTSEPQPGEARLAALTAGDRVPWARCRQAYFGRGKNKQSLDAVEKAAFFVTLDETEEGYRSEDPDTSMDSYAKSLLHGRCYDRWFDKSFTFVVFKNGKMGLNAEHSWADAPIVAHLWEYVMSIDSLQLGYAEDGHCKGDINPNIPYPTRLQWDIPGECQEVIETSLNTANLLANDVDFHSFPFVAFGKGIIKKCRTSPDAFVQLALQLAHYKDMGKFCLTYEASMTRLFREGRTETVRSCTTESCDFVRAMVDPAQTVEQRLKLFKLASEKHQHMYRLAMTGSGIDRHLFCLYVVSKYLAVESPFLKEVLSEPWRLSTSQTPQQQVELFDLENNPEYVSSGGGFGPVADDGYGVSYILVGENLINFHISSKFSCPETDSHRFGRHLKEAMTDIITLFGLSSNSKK
Outline: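 Mitochondrial extracts (1.6 μg protein) expressing human CPT1A, preincubated 10 min with compound in 20% DMSO, then reacted 10 min at room temperature with 20 μM palmitoyl-CoA, 50 μM L-carnitine (pH 7.5). Palmitoyl carnitine was quantified by LC/MS against a myristoyl carnitine standard; 16-point, 2-fold titrations gave dose response.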

Structure (SMILES) | IC50 [µM]
CCCCCCCCc1ccc(NC(=O)N[C@H](CC(=O)[O-])C[N+](C)(C)C)cc1 [Example S7, (R)-3-(3-(4-octylphenyl)ureido)-4-(trimethylammonio)butanoate] | 1 to 10
CCCCCCCOc1ccc(NC(=O)N[C@H](CC(=O)[O-])C[N+](C)(C)C)cc1 [Example S10, (R)-3-(3-(4-(heptyloxy)phenyl)ureido)-4-(trimethylammonio)butanoate] | 10 to 100
CCCCCCCCCCOc1ccc(C(=O)N[C@H](CC(=O)O)C[N+](C)(C)C)cc1 [Example S63, (R)-3-(4-(decyloxy)benzamido)-4-(trimethylammonio)butanoate 2,2,2-trifluoroacetate] | ≤ 1
CCCCCCCCCCc1ccc(C(=O)N[C@H](CC(=O)[O-])C[N+](C)(C)C)cc1 [Example S66, (R)-3-(4-decylbenzamido)-4-(trimethylammonio)butanoate] | ≤ 1
CCCCCCCCCCOc1cccc(C(=O)N[C@H](CC(=O)[O-])C[N+](C)(C)C)c1 [Example S67, (R)-3-(3-(decyloxy)benzamido)-4-(trimethylammonio)butanoate] | 10 to 100
CCCCCCCCCCc1ccc(S(=O)(=O)N[C@H](CC(=O)O)C[N+](C)(C)C)cc1 [Example S75, (R)-3-carboxy-2-(4-decylphenylsulfonamido)-N,N,N-trimethylpropan-1-aminium 2,2,2-trifluoroacetate] | 1 to 10
CCCCCCCCCCCCc1ccc(NS(=O)(=O)N[C@H](CC(=O)O)C[N+](C)(C)C)cc1 [Example S89, (R)-3-(N-(4-dodecylphenyl)sulfamoylamino)-4-(trimethylammonio)-butanoate] | ≤ 1
CCCCCCCCCCCCCCc1ccc(NS(=O)(=O)N[C@H](CC(=O)O)C[N+](C)(C)C)cc1 [Example S90, (R)-3-(N-(4-tetradecylphenyl)sulfamoylamino)-4-(trimethylammonio)-butanoate] | ≤ 1

— US8410150B2, “Inhibitors of carnitine palmitoyltransferase and treating cancer” (University Health Network, priority 2007, dated 2013)
